Results published in patent publication US20150141523A1, “COMPOUNDS FOR USE IN THE TREATMENT OF AUTOIMMUNE INFLAMMATORY DISEASE” (Venantius Limited, priority 2012, published 2015).
Like-named read-outs stand apart in the source and are kept apart here.

Legend:
[1] = system: BalbC mice; test: Arachidonic acid mouse ear oedema model; assay type: in vivo; conditions: 300 μg/ear in acetone, topical; arachidonic acid alone 86%
Method: The arrachidonic mouse ear oedema model is an acute inflammation model based on activation of ecosanoid pathways. The mouse ear oedema model was performed using BalbC mice (25-35 g), of either sex. The ear was treated by the topical application (10 μl) of solvent (acetone 100%) or test drug (300 μg/ear in acetone) or Indomethacin (300 μg/ear in acetone). After one hour, oedema was induced by the topical application of arachidonic acid (10 μl at 0.4 g/ml in acetone). The width of each ear was measured, both before and 60 min after the induction of oedema, using a micrometer screw gauge. Ear oedema was calculated by comparing the ear width before and after induction of oedema and expressed as percentage normal. Animals were killed using CO2, without recovering from sedation.

[2] = system: β-hexosaminidase release from RBL-2H3 cells; conditions: cited from earlier work
[3] = system: IL-2 secretion from Jurkat T cells; test: IL-2 secretion from activated Jurkat T cells (ELISA); assay type: cell-based, human; conditions: for IL-2 [ ]pg/ml (1) / IL-2 % Control (1): experiment (1); for IL-2 % Control (1) / IL-2 % Control (2) / IL-2 % Control (3): relative to DMSO 0.1%; for IL-2 [ ]pg/ml (2) / IL-2 % Control (2): experiment (2); for IL-2 [ ]pg/ml (3) / IL-2 % Control (3): experiment (3)
Method: The T cell line Jurkat 6.1 (ATCC) was used. Cells were pre-treated for 30 min with 1 μM or 10 μM of the respective compound and then stimulated with plate-bound anti-CD3 (BD Pharmingen) and anti-CD28 (AnCell). DMSO was used as vehicle control. The immunosuppressive agent Cyclosporine A was used as a control for inhibition of IL-2 production. After 24 hs the supernatant was collected and IL-2 secretion was measured by ELISA.
Jurkat T cells were cultured in RMPI-1640 medium containing 10 % Foetal Bovine Serum, Penicillin/Streptomycin and L-Glutamine in T-75cm2 flasks at 37° C. and 5 % CO2. Cells were seeded into new culture flasks at a density of 1-3×10^5 cells per ml and maintained at a density of 0.5−1×10^6 cells per ml.
(§1) (A) Anti-TCR/CD28-mediated activation of Jurkat cells: Experiments involving anti-TCR/CD28-mediated activation of Jurkat T lymphocytes were carried out on 24-well cell culture plates. The plates were coated with a 1/100 dilution of rabbit anti-mouse IgG in sterile PBS (1×) and incubated overnight at 4OC. Unbound antibody was aspirated and the wells were gently rinsed with warm sterile PBS. The PBS was aspirated and the wells were coated with a 1/100 dilution of anti-TCR antibody (OKT-3) and a 1/200 dilution of anti-CD28 antibody (both antibodies pre-mixed prior to addition to the plates) in sterile PBS. The plates were then incubated for 1-2 hours at 37° C. Unbound antibody was aspirated and the wells were gently rinsed with warm PBS. The PBS was left on the plate until the Jurkat cells were ready to be added to the plate. The Jurkat cells were harvested from the T-75cm2 cell culture flasks and resuspended at a density of 0.5×10^6 cells per ml. The compounds were dissolved at a specified stock concentration (see results section) and diluted to the required concentration by adding the drug to the cell suspension. The cells were then pre-incubated with the compounds or with an equivalent volume of drug vehicle control (DMSO) for 30 minutes prior to adding the cell suspension to the antibody-coated plates. Cyclosporine A (1 μM) was used as a positive control to inhibit IL-2 production from activated T cells and was preincubated with the 6 cells as described above in parallel. The cells were then incubated on the plates with the acti-TCR/CD28 antibodies for 24 hours at 37° C. and 5% CO2 in a humidified atmosphere. After 24 hours, the cell suspension was removed from the plates and the cells were pelleted by centrifugation. The cell culture supernatant was saved and analysed for secreted IL-2 by ELISA. The cell pellet was saved and cell viability was measured using Acridine Orange/Ethidium Bromide cell viability staining solution.
(B) PHA/PMA-mediated activation of Jurkat cells Jurkat cells were resuspended at a concentration of 0.5×10^6 cells per ml and the Pharmatrin compounds at the desired concentration or an equivalent volume of drug vehicle control (DMSO) were added to the cells and incubated for 30 minutes. Cyclosporine A (1 ∝M) was used as a positive control to inhibit IL-2 production from activated T cells and was preincubated with the cells as described above in parallel. PHA and PMA were added to the cell suspension (10 ∝g/ml and 10 ng/ml respectively) and the cells were plated onto uncoated 24-well plates. The cells were incubated on the plates for 24 hours at 37° C. and 5 % CO2 in a humidified atmosphere. After 24 hours, the cell suspension was removed from the plates and the cells were pelleted by centrifugation. The cell culture supernatant was saved and analysed for secreted IL-2 by ELISA.
The cell culture supernatants were analysed for IL-2 by ELISA (96-well plate format) using the Human IL-2 ELISA kit from R&D Systems Europe. This assay was carried out using the standard protocol outlined by the company. Samples and standards (recombinant human IL-2 provided by R&D Systems) were analysed in triplicate. […]

[4] = system: Jurkat cells; test: Jurkat cell viability (Acridine Orange/Ethidium Bromide); assay type: cell-based
Method: as §1
The cell pellet was resuspended in 20 μl of Acridine Orange/Ethidium Bromide staining solution. A portion of this cell suspension was placed on a haemocytometer and analysed under a fluorescence microscope. […] The ratio of viable cells: non-viable cells were calculated for each activation time point/drug treatment.

[5] = system: Balb/C mice; test: Oxazolone contact hypersensitivity (CHS) mouse ear swelling; assay type: in vivo; conditions: 15 mg/kg; vehicle 107%
Method: Female Balb/C mice (30-40 gms) were sensitised on day 0 with 20 μl of 2% oxazolone in acetone on each ear (10 μl on the inner and outer aspects of both ears). All mice were challenged on day 5 with 20 μl of 2% oxazolone in acetone only on the right ear; again, 10 μl on both the inner and outer aspects of the ear. Immediately following this, the mice were treated with test compound. The test compound was administered in exactly the same way as the oxazolone, with 10 μl on each side of the right ear. […] For the […] group, acetone was administered. All animals were killed 24 hrs later and the percentage increase in ear swelling was calculated. This was done in two ways. The thickness of the unchallenged left ear and the challenged right ear were measured using a micrometer caliper (μm). The increase in weight of both ears was also measured using a 5 mm biopsy punch (mgs). The percentage increase in oedema was then calculated for both weight and thickness by expressing the difference between the unchallenged left ear and the challenged right ear as a percentage of the left ear control.

[6] = RBL-2H3 cells, Inflamm. Res. 57 (2008)

With COc1ccc2c(c1)c(CC(=O)O)c(C)n2C(=O)c1ccc(Cl)cc1 [Indomethacin, reference compound] the “ear swelling (increase in ear thickness)” value [1] was 40%.
For “(S,S and RR)2-Benzyl-2,3-dihydro-1H,1′H-2,2′-biinden-1-ol [Compound 6]”, the “inhibition of β-hexosaminidase release” value ([2]; RBL-2H3 cells stimulated by calcium ionophore A23187, Bioorg. Med. Chem. Lett. 19(20), 2009) is listed as “dose-dependant inhibition” and the “inhibition of β-hexosaminidase release” value [2, 6] is listed as “dose dependent inhibition”.
For “(R,S or SR)2-Benzyl-2,3-dihydro-1H,1′H-2,2′-biinden-1-ol [Compound 8]”, the “IL2 release from Jurkat cells” value [3] was “inhibited IL2 release”, the “IL-2 [ ]pg/ml (1)” value ([3]; 0.3 uM) was 44.20 pg/mL and the “IL-2 % Control (1)” value ([3]; 0.3 uM) was 216.67%. For the same molecule, the “IL-2 [ ]pg/ml (2)” value ([3]; 0.3 uM) was 50.10 pg/mL, the “IL-2 % Control (2)” value ([3]; 0.3 uM) was 245.59% and the “IL-2 [ ]pg/ml (3)” value ([3]; 0.3 uM) was 107.03 pg/mL. The “IL-2 % Control (3)” value ([3]; 0.3 uM) was 77.39%, the “IL-2 [ ]pg/ml (1)” value ([3]; 1 uM) was 37.95 pg/mL and the “IL-2 % Control (1)” value ([3]; 1 uM) was 186.03%. The “IL-2 [ ]pg/ml (2)” value ([3]; 1 uM) was 39.65 pg/mL, the “IL-2 % Control (2)” value ([3]; 1 uM) was 194.36% and the “IL-2 [ ]pg/ml (3)” value ([3]; 1 uM) was 111.75 pg/mL. The “IL-2 % Control (3)” value ([3]; 1 uM) was 80.81%, the “IL-2 [ ]pg/ml (1)” value ([3]; 3 uM) was 34.45 pg/mL and the “IL-2 % Control (1)” value ([3]; 3 uM) was 168.87%. For the same molecule, the “IL-2 [ ]pg/ml (2)” value ([3]; 3 uM) was 36.00 pg/mL, the “IL-2 % Control (2)” value ([3]; 3 uM) was 176.47% and the “IL-2 [ ]pg/ml (3)” value ([3]; 3 uM) was 102.92 pg/mL. For the same molecule, the “IL-2 % Control (3)” value ([3]; 3 uM) was 74.42%, the “IL-2 [ ]pg/ml (1)” value ([3]; 10 uM) was 20.15 pg/mL and the “IL-2 % Control (1)” value ([3]; 10 uM) was 98.77%. The “IL-2 [ ]pg/ml (2)” value ([3]; 10 uM) was 25.65 pg/mL, the “IL-2 % Control (2)” value ([3]; 10 uM) was 125.74% and the “IL-2 [ ]pg/ml (3)” value ([3]; 10 uM) was 81.78 pg/mL. For the same molecule, the “IL-2 % Control (3)” value ([3]; 10 uM) was 59.13%, the “IL-2 [ ]pg/ml (1)” value ([3]; 30 uM) was -2.80 pg/mL and the “IL-2 % Control (1)” value ([3]; 30 uM) was −13.73%. For the same molecule, the “IL-2 [ ]pg/ml (2)” value ([3]; 30 uM) was -3.00 pg/mL, the “IL-2 % Control (2)” value ([3]; 30 uM) was −14.71% and the “IL-2 [ ]pg/ml (3)” value ([3]; 30 uM) was 76.25 pg/mL. The “IL-2 % Control (3)” value ([3]; 30 uM) was 55.14%, the “IL-2 [ ]pg/ml (1)” value ([3]; 100 uM) was -12.55 pg/mL and the “IL-2 % Control (1)” value ([3]; 100 uM) was −61.52%. The “IL-2 [ ]pg/ml (2)” value ([3]; 100 uM) was -12.80 pg/mL, the “IL-2 % Control (2)” value ([3]; 100 uM) was −62.75% and the “IL-2 [ ]pg/ml (3)” value ([3]; 100 uM) was 8.11 pg/mL. For the same molecule, the “IL-2 % Control (3)” value ([3]; 100 uM) was 5.87% and the cell viability [4] was “without affecting cell viability”.
For O[C@@H]1c2ccccc2C[C@]1(Cc1ccccc1)C1=Cc2ccccc2C1 (racemic) [Compound 5, (R,S and SR)2-Benzyl-2,3-dihydro-1H,1′H-2,2′-biinden-1-ol], the “inhibition of β-hexosaminidase release” value [2, 6] is listed as “dose dependent inhibition”.
With C[C@@H]1C[C@H]2[C@@H]3CCC4=CC(=O)C=C[C@]4(C)[C@@]3(F)[C@@H](O)C[C@]2(C)[C@@]1(O)C(=O)CO [dexamethasone, reference compound] the “increase in ear punch weight” value [5] was 42%.
